Counter-ions that a name gives are not always drawn.

Take `Cc1c(C(=O)N(C)C)sc2ncn(CCN3CCN(c4cccc5c4CCCC5)CC3)c(=O)c12` [Example 13, 3,4-Dihydro-5-methyl-6-dimethylcarbamoyl-3-[2-(4-tetralin-5-ylpiperazin-1-yl)ethyl]thieno[2,3-d]pyrimidin-4-one]: the melting point was 174 °C.

With `CCOC(=O)N1Cc2sc3ncn(CC(C)N4CCN(c5ccccc5Cl)CC4)c(=O)c3c2C1` (centres unmarked) [Example 39, 3,4,5,7-Tetrahydro-6-carboethoxy-3-[2-(4-(2-chlorophenyl)-piperazin-1-yl)propyl]pyrrolo[3′,4′:4,5]thieno-[2,3-d]pyrimidin-4-one], the melting point was 172 °C.

For the compound `COc1ccccc1N1CCN(CCn2c(O)nc3sc4c(c3c2=O)CCN(C(C)=O)C4)CC1` [Example 121, 3,4,5,6,7,8-Hexahydro-7-acetyl-2-hydroxy-3-[2-(4-(2-methoxyphenyl)piperazin-1-yl)ethyl]pyrido[4′,3′:4,5]thieno-[2,3-d]pyrimidin-4-one], the melting point lay within 135 to 137 °C.

Regarding `CN1CCc2c(sc3ncn(CCN4CCN(c5ccc6ccccc6c5)CC4)c(=O)c23)C1` [Example 73, 3,4,5,6,7,8-Hexahydro-7-methyl-3-[2-(4-naphth-2-ylpiperazin-1-yl)ethyl]pyrido[4′,3′:4,5]thieno[2,3-d]pyrimidin-4-one], the melting point lay in the range of 140 to 141 °C.

As to `CCN1CCc2sc3ncn(CCN4CCCN(c5cccc6ccccc56)CC4)c(=O)c3c2C1` (as salt: hydrochloride) [Example 17, 3,4,5,6,7,8-Hexahydro-6-ethyl-3-[2-(4-naphth-1-ylhexahydro-1,4-diazepin-1-yl)ethyl]pyrido[3′,4′:4,5]thieno[2,3-d]-pyrimidin-4-one], the melting point lay within 276 to 280 °C.

`O=c1c2c3c(sc2ncn1CCN1CCN(c2ccccc2)CC1)CN(Cc1ccccc1)CC3` [Example 19, 3,4,5,6,7,8-Hexahydro-7-benzyl-3-[2-(4-phenylpiperazin-1-yl)-ethyl]pyrido[4′,3′:4,5]thieno[2,3-d]pyrimidin-4-one] showed a melting point of 70 to 71 °C.

As for `CCOC(=O)N1Cc2sc3ncn(CCN4CCN(c5ccccc5C)CC4)c(=O)c3c2C1` [Example 38, 3,4,5,7-Tetrahydro-6-carboethoxy-3-[2-(4-(2-methylphenyl)-piperazin-1-yl)ethyl]pyrrolo[3′,4′:4,5]thieno-[2,3-d]pyrimidin-4-one], the melting point was 152 °C.

Regarding `CCOC(=O)N1Cc2sc3ncn(CCN4CCN(c5cccc6c5CCC6)CC4)c(=O)c3c2C1` [Example 44, 3,4,5,7-Tetrahydro-6-carboethoxy-3-[2-(4-indan-4-ylpiperazin-1-yl)ethyl]pyrrolo[3′,4′:4,5]thieno[2,3-d]pyrimidin-4-one], the melting point amounted to 149 °C.

In the case of `N=c1c2c3c(sc2ncn1CCN1CCN(c2ccccc2)CC1)CN(Cc1ccccc1)CC3` [Example 17, 3,4,5,6,7,8-Hexahydro-7-benzyl-3-[2-(4-phenylpiperazin-1-yl)-ethyl]pyrido[4′,3′:4,5]thieno[2,3-d]pyrimidin-4-imine], the melting point was in the range of 168 to 170 °C.

The compound `COc1ccc(N2CCN(CCn3cnc4sc(C(=O)N(C)C)c(C)c4c3=O)CC2)c(OC)c1` [Example 30, 3,4-Dihydro-5-methyl-6-dimethylcarbamoyl-3-[2-(4-(2,4-dimethoxyphenyl)piperazin-1-yl)ethyl]thieno-[2,3-d]pyrimidin-4-one] showed a melting point of 170 to 171 °C.

As to `Cc1cccc(N2CCN(CCn3cnc4sc5c(c4c3=O)CCN(C)C5)CC2)c1C` [Example 44, 3,4,5,6,7,8-Hexahydro-7-methyl-3-[2-(4-(2,3-dimethylphenyl)-piperazin-1-yl)ethyl]pyrido[4′,3′:4,5]thieno[2,3-d]pyrimidin-4-one], the melting point is 163 to 167 °C.

Consider `COc1ccccc1N1CCN(CCn2c(C)nc3sc4c(c3c2=O)CCN(C)C4)CC1` [Example 120, 3,4,5,6,7,8-Hexahydro-2,7-dimethyl-3-[2-(4-(2-methoxyphenyl)-piperazin-1-yl)ethyl]pyrido[4′,3′:4,5]thieno-[2,3-d]pyrimidin-4-one], for which the melting point fell in the range of 176 to 178 °C.

Regarding `CN1CCc2c(sc3ncn(CCN4CCN(c5ccccc5C#N)CC4)c(=O)c23)C1` [Example 68, 3,4,5,6,7,8-Hexahydro-7-methyl-3-[2-(4-(2-cyanophenyl)-piperazin-1-yl)ethyl]pyrido[4′,3′:4,5]thieno[2,3-d]-pyrimidin-4-one], the melting point fell in the range of 162 to 164 °C.

As for `CN1CCc2c(sc3ncn(CCN4CCN(c5ccccc5)CC4)c(=O)c23)C1` [Example 145, 3,4,5,6,7,8-Hexahydro-7-methyl-3-[2-(4-phenylpiperazin-1-yl)ethyl]pyrido[4′,3′:4,5]thieno[2,3-d]pyrimidin-4-one], the melting point fell in the range of 121 to 123 °C.

The compound `COc1ccccc1N1CCN(CCn2cnc3sc4c(c3c2=O)CCNC4)CC1` [Example 115, 3,4,5,6,7,8-Hexahydro-3-[2-(4-(2-methoxyphenyl)-piperazin-1-yl)ethyl]pyrido[4′,3′:4,5]thieno[2,3-d]pyrimidin-4-one] returned a melting point of 168 to 170 °C.

In the case of `CCOC(=O)N1Cc2sc3ncn(CCN4CCN(c5cccc6ccccc56)CC4)c(=O)c3c2C1` [Example 8, 3,4,5,7-Tetrahydro-6-carboethoxy-3-[2-(4-(1-naphthyl)-piperazin-1-yl)ethyl]pyrrolo[3′,4′:4,5]thieno[2,3-d]-pyrimidin-4-one], the melting point lay in the range of 190 to 192 °C.

Compound `Cc1c(C(=O)N(C)C)sc2ncn(CCN3CCN(c4ncnc5ccccc45)CC3)c(=O)c12` (as salt: hydrochloride) [Example 29, 3,4-Dihydro-5-methyl-6-dimethylcarbamoyl-3-[2-(4-quinazolin-4-ylpiperazin-1-yl)ethyl]thieno[2,3-d]pyrimidin-4-one] displayed a melting point of 295 to 300 °C.

In the case of `Cc1c(C(=O)N(C)C)sc2ncn(CCN3CCN(c4ccccc4C#N)CC3)c(=O)c12` (as salt: hydrochloride) [Example 15, 3,4-Dihydro-5-methyl-6-dimethylcarbamoyl-3-[2-(4-(2-cyanophenyl)piperazin-1-yl)ethyl]thieno[2,3-d]pyrimidin-4-one], the melting point is 210 °C.

`CN1CCc2c(sc3ncn(CCN4CCN(c5nccc(C(F)(F)F)n5)CC4)c(=O)c23)C1` [Example 127, 3,4,5,6,7,8-Hexahydro-7-methyl-3-[2-(4-(4-trifluoromethyl-pyrimidin-2-yl)piperazin-1-yl)ethyl]pyrido[4′,3′:4,5]-thieno[2,3-d]pyrimidin-4-one] came in with a melting point of 291 to 292 °C.

`CN1CCc2c(sc3ncn(CCCN4CCN(c5ncccn5)CC4)c(=O)c23)C1` [Example 64, 3,4,5,6,7,8-Hexahydro-7-methyl-3-[3-(4-pyrimidin-2-yl-piperazin-1-yl)propyl]pyrido[4′,3′:4,5]thieno[2,3-d]-pyrimidin-4-one] had a melting point of 161 to 163 °C.

`CN1CCc2c(sc3ncn(CCN4CCN(c5ncccn5)CC4)c(=O)c23)C1` [Example 27, 3,4,5,6,7,8-Hexahydro-7-methyl-3-[2-(4-pyrimidin-2-ylpiperazin-1-yl)ethyl]pyrido[4′,3′:4,5]thieno[2,3-d]-pyrimidin-4-one] yielded a melting point of 146 to 148 °C.

Compound `Cc1ccc2ccccc2c1N1CCN(CCn2cnc3sc(C(=O)N(C)C)c(C)c3c2=O)CC1` [Example 4, 3,4-Dihydro-5-methyl-6-dimethylcarbamoyl-3-[2-(4-(2-methyl-1-naphthyl)piperazin-1-yl)ethyl]-thieno[2,3-d]pyrimidin-4-one] registered a melting point of 178 to 180 °C.

For `Cc1ccc(C)c(N2CCN(CCn3cnc4sc(C(=O)N(C)C)c(C)c4c3=O)CC2)c1` [Example 31, 3,4-Dihydro-5-methyl-6-dimethylcarbamoyl-3-[2-(4-(2,5-dimethylphenyl)piperazin-1-yl)ethyl]thieno-[2,3-d]pyrimidin-4-one], the melting point was in the range of 90 to 91 °C.

Broadly, the melting point is the temperature of the solid-liquid transition.
